{"source": "patent US7101849B1", "about": "(The University of Queensland, priority 1998, dated 2006)", "target": "N-type calcium channel (Rattus norvegicus, UniProt Q02294)", "sequence (Q02294 whole entry, looked up)": "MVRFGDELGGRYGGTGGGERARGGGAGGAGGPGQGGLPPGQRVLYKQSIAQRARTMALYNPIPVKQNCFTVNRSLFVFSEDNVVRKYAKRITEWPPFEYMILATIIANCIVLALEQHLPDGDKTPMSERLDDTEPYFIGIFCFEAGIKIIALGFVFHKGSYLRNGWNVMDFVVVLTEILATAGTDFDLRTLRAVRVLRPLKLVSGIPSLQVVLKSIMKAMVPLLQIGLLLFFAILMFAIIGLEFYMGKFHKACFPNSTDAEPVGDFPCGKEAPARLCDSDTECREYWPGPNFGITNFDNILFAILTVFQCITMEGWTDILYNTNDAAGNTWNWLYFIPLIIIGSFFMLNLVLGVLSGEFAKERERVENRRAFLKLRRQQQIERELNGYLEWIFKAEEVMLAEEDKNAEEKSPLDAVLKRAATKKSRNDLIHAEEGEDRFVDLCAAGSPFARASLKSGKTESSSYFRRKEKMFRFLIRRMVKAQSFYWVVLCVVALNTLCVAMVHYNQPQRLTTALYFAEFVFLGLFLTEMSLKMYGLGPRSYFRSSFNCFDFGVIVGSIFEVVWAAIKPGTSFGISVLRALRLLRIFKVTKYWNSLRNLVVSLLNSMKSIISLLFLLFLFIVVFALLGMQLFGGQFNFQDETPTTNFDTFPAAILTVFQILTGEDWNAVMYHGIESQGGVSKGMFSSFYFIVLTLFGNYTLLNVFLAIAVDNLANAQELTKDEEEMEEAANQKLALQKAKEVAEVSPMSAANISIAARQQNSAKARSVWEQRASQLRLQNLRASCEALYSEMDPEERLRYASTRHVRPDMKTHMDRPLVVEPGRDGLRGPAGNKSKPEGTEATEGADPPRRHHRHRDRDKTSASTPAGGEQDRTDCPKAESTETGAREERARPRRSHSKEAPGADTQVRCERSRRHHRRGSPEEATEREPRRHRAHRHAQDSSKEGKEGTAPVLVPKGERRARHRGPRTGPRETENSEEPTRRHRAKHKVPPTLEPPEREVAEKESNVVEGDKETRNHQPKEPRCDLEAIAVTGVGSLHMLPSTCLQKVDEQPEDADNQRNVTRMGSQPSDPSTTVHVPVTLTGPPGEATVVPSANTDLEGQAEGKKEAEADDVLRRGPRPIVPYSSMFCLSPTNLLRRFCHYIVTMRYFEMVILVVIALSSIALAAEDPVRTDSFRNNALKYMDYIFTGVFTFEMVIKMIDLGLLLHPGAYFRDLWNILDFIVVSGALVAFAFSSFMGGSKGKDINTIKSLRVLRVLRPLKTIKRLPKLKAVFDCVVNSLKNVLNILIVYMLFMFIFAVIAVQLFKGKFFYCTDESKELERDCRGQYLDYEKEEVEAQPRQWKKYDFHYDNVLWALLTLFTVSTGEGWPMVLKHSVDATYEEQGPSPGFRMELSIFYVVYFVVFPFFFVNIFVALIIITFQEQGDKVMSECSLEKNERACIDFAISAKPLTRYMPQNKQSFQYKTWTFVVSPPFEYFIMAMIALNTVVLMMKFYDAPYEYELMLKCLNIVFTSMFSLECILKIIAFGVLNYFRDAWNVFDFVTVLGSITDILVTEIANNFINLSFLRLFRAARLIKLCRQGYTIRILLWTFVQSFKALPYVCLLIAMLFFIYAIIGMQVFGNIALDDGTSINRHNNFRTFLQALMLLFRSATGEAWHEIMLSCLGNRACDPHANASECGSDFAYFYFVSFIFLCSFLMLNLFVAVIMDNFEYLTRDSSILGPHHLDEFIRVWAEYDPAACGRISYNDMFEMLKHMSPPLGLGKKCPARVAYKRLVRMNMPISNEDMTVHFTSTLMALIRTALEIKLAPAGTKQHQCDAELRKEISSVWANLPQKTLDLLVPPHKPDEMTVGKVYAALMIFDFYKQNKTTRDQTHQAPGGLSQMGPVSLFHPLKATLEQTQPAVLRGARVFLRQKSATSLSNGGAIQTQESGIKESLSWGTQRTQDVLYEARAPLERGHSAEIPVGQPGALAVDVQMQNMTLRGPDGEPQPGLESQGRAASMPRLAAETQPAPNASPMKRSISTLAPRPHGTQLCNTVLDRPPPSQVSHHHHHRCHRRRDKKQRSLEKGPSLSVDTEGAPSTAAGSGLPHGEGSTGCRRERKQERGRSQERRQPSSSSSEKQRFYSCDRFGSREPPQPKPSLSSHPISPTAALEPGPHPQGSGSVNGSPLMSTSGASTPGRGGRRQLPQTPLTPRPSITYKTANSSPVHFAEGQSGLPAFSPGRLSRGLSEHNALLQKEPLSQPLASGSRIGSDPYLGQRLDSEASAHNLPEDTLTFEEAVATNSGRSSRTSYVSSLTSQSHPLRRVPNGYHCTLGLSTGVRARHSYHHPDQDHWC", "format": "binding"}
{"sequence": "CKSKGAKCDRLMYDCCSGSCSGTVGRC [D^9R^10-CVID]", "values": [{"measurement": "potency for N-type calcium channel in receptor binding assays", "value": "high potency"}, {"measurement": "selectivity for N-type calcium channel over P/Q-type calcium channel in receptor binding assays", "value": "high selectivity"}]}
